Assay results published in patent publication US9517225B2, “Low dose lipoic acid pharmaceutical compositions and methods” (ENCORE HEALTH, LLC, priority 2008, dated 2016).

How the values were obtained:
Type in all cases: cell-based
[1] = test system: human umbilical vein endothelial cells (HUVEC, first passage); assay: In vitro toxicology: cell viability, MultiTox-Fluor or Live/Dead assay; conditions: doses ranging from 0.1 μM to 100 μM
Experimental: Cell viability was determined using human umbilical vein endothelial cells (HUVEC, first passage). Cells were treated with the active agent in doses ranging from 0.1 μM to 100 μM. The number of live and dead cells was determined using the MultiTox-Fluor assay (Promega) or Live/Deadly® assay (Invitrogen). Logistic plots were used to determine the compound's LD50 value. Lipoic acid was not cytotoxic in the concentration range.

mouse lenses = assay: Increase in elasticity: lens organ culture, change in lens diameter under coverslip (ΔD); conditions: mouse lenses incubated 8-15 hours, 0.5 μM to 500 μM tested, p<0.0001
From the text: FIG. 4 depicts a scatter plot of the change in ΔD (micrometers) in the absence (control) and presence of lipoic acid in lens organ culture experiments. […] Statistical values are highly significant at p<0.0001 by unpaired t-test and by Kruskal Wallis test, which compared medians of each data set. The relative change in Young's modulus (E) can be calculated as the cubic value derived from the ΔD of the control divided by the ΔD of the experimental or E fractional change=(ΔD con/ΔDexp)^3.
Increase in Elasticity: Pairs of mouse lenses were incubated in medium 200 supplemented with an antibiotic, an antimycotic, in the presence or absence of lipoic acid (concentrations ranging from 0.5 μM to 500 μM) for 8-15 hours. Each lens was removed from medium, weighed, and photographed on a micrometer scale. A coverslip of known weight (0.17899±0.00200 g) was placed on the lens, and the lens was photographed again on the micrometer scale. The diameter of each lens with and without the coverslip was determined from the photographs. The change in lens diameter produced by the force (coverslip) was computed ΔD=(Dwithcoverslip−Dwithoutcoverslip).

[2] = test system: protein disulfides in the mouse lenses; assay: Decrease in disulfide bonds: protein SH/SS in lens homogenates by fluorescent alkylation; conditions: FIG. 5, p≦0.05 vs control
Experimental: FIG. 5 depicts a scattergram of the percent of the total protein SH groups in disulfide bonds. Free SH groups were alkylated with 4-acetamido-4′-maleimidylstilbene-2,2′-sulfonic acid (c, 1 μM, 5 μM, 9.6 μM, 50 μM, 96 μM) or 7-diethylamino-3-(4′maleimidylphenyl)-4-methyl coumarin (500 μM, and 500 μM c). Following removal of the first alkylating agent, the S—S bonds were reduced and alkylated with fluorescein-5-maleimide. Absorption spectra were used to calculated total protein (A280 nm), free protein SH (A322 or A384), and protein SS (A490) using the appropriate extinction coefficients. The symbol ‡ indicates statistically significant difference of mean with mean of control (c, p≦0.05).
Mouse lenses were homogenized in a denaturing buffer containing a fluorescent alkylating agent to modify the free SH groups. After removing the alkylating agent homogenates were reduced and alkylated with a different fluorescent alkylating agent. Absorption spectra of the modified proteins were used to calculate free protein SH and protein SS groups.

## O=C(O)CCCCC1CCSS1 (stereo not drawn) [lipoic acid, 5-(1,2-dithiolan-3-yl)pentanoic acid]
[1]
  cytotoxicity (live and dead cells): not cytotoxic
Mouse lenses
  concentrations causing a statistically significant increase in ΔD: ≥ 9.6 µM
[2]
  concentrations causing a statistically significant decrease in protein disulfides: ≥ 9.6 µM
